Data published in publication PMC11062922 (Nature Chemical Biology, 2023).

Columns and labels:
EPHB6 = target: T1, EPHB6 (Homo sapiens, UniProt O15197); test: Kinobeads two-dose competition binding: EPHB6; conditions: target EPHB6
T1 construct: to maximize the representation of endogenous proteins; endogenous in cells
T1 sequence (O15197 32-1021): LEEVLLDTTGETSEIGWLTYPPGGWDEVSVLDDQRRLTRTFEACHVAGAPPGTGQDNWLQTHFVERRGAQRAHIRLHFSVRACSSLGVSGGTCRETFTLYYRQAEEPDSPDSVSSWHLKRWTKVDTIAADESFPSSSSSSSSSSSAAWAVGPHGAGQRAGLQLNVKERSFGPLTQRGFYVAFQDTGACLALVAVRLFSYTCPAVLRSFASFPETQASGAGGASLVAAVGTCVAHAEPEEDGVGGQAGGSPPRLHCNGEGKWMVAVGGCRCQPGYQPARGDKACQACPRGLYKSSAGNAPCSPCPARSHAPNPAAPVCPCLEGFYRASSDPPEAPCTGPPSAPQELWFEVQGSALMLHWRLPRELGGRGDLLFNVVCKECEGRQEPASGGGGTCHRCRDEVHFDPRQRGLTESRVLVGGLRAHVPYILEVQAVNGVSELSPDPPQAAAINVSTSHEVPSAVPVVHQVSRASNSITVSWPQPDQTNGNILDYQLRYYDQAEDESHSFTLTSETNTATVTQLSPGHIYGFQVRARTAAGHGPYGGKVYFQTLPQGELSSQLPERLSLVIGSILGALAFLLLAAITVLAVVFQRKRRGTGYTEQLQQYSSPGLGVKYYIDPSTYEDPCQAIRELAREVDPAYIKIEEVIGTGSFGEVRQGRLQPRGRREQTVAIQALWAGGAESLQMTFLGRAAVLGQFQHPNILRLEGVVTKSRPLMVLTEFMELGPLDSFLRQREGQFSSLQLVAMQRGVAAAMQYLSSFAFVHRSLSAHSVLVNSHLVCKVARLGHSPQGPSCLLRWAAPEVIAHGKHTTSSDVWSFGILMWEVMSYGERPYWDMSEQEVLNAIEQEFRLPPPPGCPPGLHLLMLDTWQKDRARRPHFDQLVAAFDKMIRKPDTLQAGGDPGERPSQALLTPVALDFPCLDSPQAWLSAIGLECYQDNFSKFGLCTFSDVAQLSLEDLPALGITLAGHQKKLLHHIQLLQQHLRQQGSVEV
Description: Briefly, Kinobeads comprise seven broad-spectrum small molecule kinase inhibitors immobilized on Sepharose beads. […]. Compounds of interest are set to compete for target protein binding with Kinobeads in the lysate and the amount of a given protein bound to Kinobeads in the presence of a compound can be quantified relative to a dimethylsulfoxide (DMSO) vehicle control by label-free mass spectrometry. This assay measures the physical interaction of a compound with thousands of endogenous proteins in parallel and, when systematically increasing the concentration of competitor, enables the calculation of an apparent interaction constant ( Kdapp ) for each compound and protein.
Kinobeads pulldown experiments were performed as described previously[13],[14],[17] with minor modification. […] The protein concentration was adjusted to 5 mg ml^−1. Kinase inhibitors were spiked into 0.5 ml of cell lysate at final concentrations of 100 and 1,000 nM (or DMSO, 0.3, 1, 3, 10, 30, 100, 300 and 1,000 nM for full dose experiments). […] Lysates were incubated for 45 min at 4 °C. Subsequently, lysates were incubated with Kinobeads ε (17.5 µl of settled beads) for 30 min at 4 °C. To assess the degree of protein depletion from the lysates by Kinobeads, the flow through of the DMSO control was recovered for a pulldown of pulldown experiment where the lysate was incubated a second time with fresh Kinobeads. Beads were washed in three steps with buffer containing 0.4%, 0.2% and no IGEPAL. Bound proteins were reduced with 50 mM DTT in 8 M Urea, 40 mM Tris-HCl pH 7.4 for 30 min at room temperature. After alkylation with 55 mM chloroacetamide, the urea concentration was reduced to 1–2 M and proteins were digested with trypsin. Acidified peptides were desalted and concentrated using SepPak tC18 µEluation plates (Waters). Samples were frozen, dried by vacuum centrifugation and stored at −20 °C.
Each kinase inhibitor was processed together with all DMSO controls of the same plate. Additionally, each search was supplemented with five high quality DMSO controls for consistent peptide identification and protein grouping. The resultant file (proteinGroups.txt) was used for subsequent filtering, normalization, data visualization and target annotation that was automatically performed by a data processing pipeline built in house that used R (including the ‘drc’ and ‘heatmap’ packages). First, reverse hits, potential contaminants and not quantified proteins in the DMSO control samples were discarded. Protein raw and label-free quantification intensities were normalized to the median DMSO control intensity to obtain relative residual binding intensities for each protein group at every inhibitor concentration and standard deviations of the DMSO control intensity were calculated. IC50 values were estimated based on the following equation IC50=I×100−inhibition/inhibition where [I] is the inhibitor concentration that was used for IC50 calculation and ‘inhibition’ the relative residual binding intensity. […]. Estimated Kdapp values were then calculated by multiplying the estimated IC50 values with a protein-dependent correction factor that was limited to a maximum value of one. The correction factor accounts for the depletion of a target protein from the lysate by Kinobeads. The depletion can be measured by the ratio of the amount of protein captured in two consecutive pulldowns of the same DMSO control lysate. In this study, correction factors were determined in separate experiments using the same lysate mixture and the same bead batch. Correction factors were set to the median of all correction factors. Targets of kinase inhibitors were annotated using the previously published random forest classifier. A training data set was annotated manually. […]

AKT1 = target: T2, AKT1 (Homo sapiens, UniProt P31749); test: Kinobeads competition binding: AKT1; conditions: target AKT1
T2 construct: endogenous in cells
T2 sequence (P31749 whole entry): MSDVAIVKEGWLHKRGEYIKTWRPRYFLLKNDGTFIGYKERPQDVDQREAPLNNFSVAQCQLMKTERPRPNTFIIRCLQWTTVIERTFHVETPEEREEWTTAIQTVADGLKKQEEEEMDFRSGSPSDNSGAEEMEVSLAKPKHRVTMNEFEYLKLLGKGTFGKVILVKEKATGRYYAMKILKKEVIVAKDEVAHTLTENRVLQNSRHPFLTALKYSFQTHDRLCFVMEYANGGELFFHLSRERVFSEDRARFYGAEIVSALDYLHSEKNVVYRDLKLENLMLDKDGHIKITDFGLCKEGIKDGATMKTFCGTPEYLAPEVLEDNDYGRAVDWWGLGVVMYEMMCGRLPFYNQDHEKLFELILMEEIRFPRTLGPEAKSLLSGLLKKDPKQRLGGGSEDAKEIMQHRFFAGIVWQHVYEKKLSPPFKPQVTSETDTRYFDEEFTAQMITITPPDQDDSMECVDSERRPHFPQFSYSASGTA
Description: Supplement 41589_2023_1459_MOESM4_ESM.xlsx, sheet "CATDS matrix" | column: AKT1

HSP90B1 = target: T3, HSP90B1 (Homo sapiens, UniProt P14625); test: Kinobeads competition binding: HSP90B1; conditions: target HSP90B1;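 further: share of total target engagement due to this protein at one drug concentration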
T3 construct: endogenous in cells
T3 sequence (P14625 22-803): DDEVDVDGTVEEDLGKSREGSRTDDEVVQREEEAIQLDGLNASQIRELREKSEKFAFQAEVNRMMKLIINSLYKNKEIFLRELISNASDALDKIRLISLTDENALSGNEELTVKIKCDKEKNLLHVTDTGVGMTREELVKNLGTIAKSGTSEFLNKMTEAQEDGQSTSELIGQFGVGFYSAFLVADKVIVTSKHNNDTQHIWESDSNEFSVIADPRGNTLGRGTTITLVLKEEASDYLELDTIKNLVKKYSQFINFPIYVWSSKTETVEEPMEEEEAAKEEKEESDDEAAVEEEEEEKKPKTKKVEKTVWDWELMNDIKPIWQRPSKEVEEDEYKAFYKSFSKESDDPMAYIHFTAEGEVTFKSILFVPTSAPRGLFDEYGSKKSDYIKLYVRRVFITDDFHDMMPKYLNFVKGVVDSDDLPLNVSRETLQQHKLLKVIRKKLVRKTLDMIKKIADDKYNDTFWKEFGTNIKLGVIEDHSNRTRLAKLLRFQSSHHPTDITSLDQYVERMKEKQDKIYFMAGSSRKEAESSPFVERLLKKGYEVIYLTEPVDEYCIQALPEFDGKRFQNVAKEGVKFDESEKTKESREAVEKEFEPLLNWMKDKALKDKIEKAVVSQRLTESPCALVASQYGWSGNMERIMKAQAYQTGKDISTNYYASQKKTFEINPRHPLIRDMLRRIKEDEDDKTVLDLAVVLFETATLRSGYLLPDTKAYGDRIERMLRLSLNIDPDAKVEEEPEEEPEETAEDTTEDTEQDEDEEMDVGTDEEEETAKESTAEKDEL

PIK3CB = test: Kinobeads competition binding: PIK3CB; set-up: species or system human; conditions: target PIK3CB

Measured: CATDS

CCc1cc2c(cc1N1CCC(N3CCOCC3)CC1)C(C)(C)c1[nH]c3cc(C#N)ccc3c1C2=O [Alectinib]
0: all assays above

CCN1CCN(Cc2ccc(Nc3ncc(F)c(-c4cc(F)c5nc(C)n(C(C)C)c5c4)n3)nc2)CC1 [Abemaciclib]
0: all assays above

Nc1ncnc2[nH]c(-c3ccccc3)nc12 [AH5015_KCGS]
0: all assays above

N#CC1(c2ccc(NC(=O)c3cccnc3NCc3ccncc3)cc2)CCCC1 [Apatinib]
0: all assays above

CN(C)C/C=C/C(=O)Nc1cc2c(Nc3ccc(F)c(Cl)c3)ncnc2cc1O[C@H]1CCOC1 [Afatinib]
0: EPHB6 | AKT1 | HSP90B1
